Results taken from PubChem BioAssay AID1963864 (Molecular Pharmacology Branch, DTP, NCI, 2024).

System: KRAS PDC multicell spheroid viability
Assay: Anticancer human tumor 521955-158-R6-J3-PDC patient-derived pancreatic carcinoma cell line growth inhibition [KRAS2]
Conditions: for IC50: curve of first compound; for viability, T/C: stronger effect = lower value
From the text: Multicellular complex tumor spheroid response to RAS pathway inhibitors in combination with a targeted agents in patient-derived cell lines with oncogenic KRAS variants from multiple cancer types
A high-throughput screen of multi-cell type tumor spheroids was designed to identify active combinations of targeted small molecules and KRAS pathway inhibitors. Complex spheroids include a stromal component modeled by human endothelial cells (HUVEC) and fibroblasts modeled by human mesenchymal stem cells (MSCs). The concentration ranges selected for each drug and investigational agent were based upon clinically achievable concentrations if the clinical Cmax of the agent was known.
Compounds. The drugs and investigational agents: BI-3406 (NSC825286), BAY-293 (NSC824723), batoprotafib (TNO155; NSC825523), sotorasib (AMG 510; NSC818433), MRTX1257 (NSC819558), elimusertib (BAY 1895344; NSC800525), molibresib (GSK525762; NSC774829), temuterkib (LY3214996; NSC803410), venetoclax (NSC766270), alisertib (NSC759677), olaparib (NSC753686), talazoparib (NSC767125), erdafitinib (NSC781556), ipatasertib (NSC767898), cabozantinib (NSC761068), nintedanib (NSC756659), abemaciclib (NSC768073), docetaxel (NSC628503), trametinib (NSC758246), and sapanisertib (NSC764658) were obtained from the National Cancer Institute (NCI) Developmental Therapeutics Program Chemical Repository. The FDA-approved anticancer drug set is available from the Developmental Therapeutics Program. […] The stock solutions were prepared in dimethyl sulfoxide (DMSO, Sigma-Aldrich, St. Louis, MO, cat. D2650) at 800-fold the tested concentration and stored at -70 degrees C prior to their use. All drugs and investigational agents were tested over a range starting from a high concentration at or near the clinical Cmax and decreasing in half-log increments. If the clinical Cmax for an agent had not been determined, the highest concentration tested was 10 microM.
Cell Culture. All cells were maintained in an incubator at 37 degrees C and 5% CO2 with 95% humidity. The PDC lines were cultured according to standard operating procedures established by the NCI PDMR (https://pdmr.cancer.gov/sops/default.htm). Briefly, all PDCs were thawed and cultured in Matrigel-coated flasks prepared with a working solution of 1X Ham's F-12 nutrient mix, without supplementation (Invitrogen, Waltham, MA, cat. 11765054), 100 U/mL penicillin-streptomycin (Invitrogen, cat. 15140122), and 2.5% Matrigel (Corning Inc., Corning, NY, cat. 354248) for the first three passages. All PDCs were cultured in complete DMEM/F-12 media containing advanced DMEM/F-12 (Invitrogen, cat. 12634028), 4.9% defined fetal bovine serum, heat inactivated (HyClone Laboratories Inc., Logan, UT, cat. SH30070.03HI), 389 ng/mL hydrocortisone (Sigma-Aldrich, cat. H4001), 9.7 ng/mL human EGF recombinant protein (Invitrogen, cat. PHG0313), 23.4 microg/mL adenine (Sigma-Aldrich, cat. A2786), 97.3 U/mL penicillin-streptomycin (Invitrogen, cat. 15140122), 1.9 mM L-glutamine (Invitrogen, cat. 25030081), and 9.7 microM Y-27632 dihydrochloride (Tocris Bioscience, Bristol, United Kingdom, cat. 1254). The PDCs were cultured in complete DMEM/F12 media without 9.7 microM Y-27632 dihydrochloride for at least two passages prior to the screen. The established cell line HOP-62 was cultured in RPMI 1640 medium, HEPES (Invitrogen, cat. 22400105) with 10% defined fetal bovine serum (HyClone Laboratories Inc., cat. SH30070.03) and 2 mM L-glutamine (Invitrogen, cat. 25030081). The pooled donor HUVEC were cultured in endothelial cell growth medium 2 (PromoCell, Heidelberg, Germany, cat. C-22011) and the hMSC were cultured in mesenchymal stem cell growth medium 2 (PromoCell, cat. C-28009). For all experiments, HUVEC and hMSC were used at passages </=5, while the malignant cell lines were used at passages </=15. […]

[1] = second compound 0.1 µM, first compound 0.0316 µM
[2] = second compound 0.1 µM, first compound 0.1 µM
[3] = second compound 0.316 µM, first compound 0.0316 µM
[4] = second compound 0.316 µM, first compound 0.1 µM
[5] = second compound 1 µM, first compound 0.0316 µM
[6] = second compound 1 µM, first compound 0.1 µM
[7] = second compound 3.16 µM, first compound 0.0316 µM
[8] = second compound 3.16 µM, first compound 0.1 µM
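Also: drug exposure lasted seven days.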
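For viability, T/C in this document: 100% = DMSO vehicle wells and lower means fewer viable cells.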

COc1cc2nccc(Oc3ccc(NC(=O)C4(C(=O)Nc5ccc(F)cc5)CC4)cc3)c2cc1OC + C=CC(=O)N1CCN(c2nc(OCC3CCCN3C)nc3c2CCN(c2cccc4cccc(C)c24)C3)CC1CC#N
IC50 (second compound 0.0316 µM): > 10000 nM | IC50 (second compound 0.1 µM): > 10000 nM | IC50 (second compound 0.316 µM): > 10000 nM | IC50 (second compound 1 µM): > 10000 nM | IC50 (second compound 3.16 µM): < 31.6 nM | viability, T/C (second compound 0.0316 µM, first compound 0.0316 µM): 103% | viability, T/C (second compound 0.0316 µM, first compound 0.1 µM): 111% | viability, T/C (second compound 0.0316 µM, first compound 0.316 µM): 98.6% | viability, T/C (second compound 0.0316 µM, first compound 1 µM): 107% | viability, T/C (second compound 0.0316 µM, first compound 3.16 µM): 126% | viability, T/C (second compound 0.0316 µM, first compound 10 µM): 128% | viability, T/C [1]: 106% | viability, T/C [2]: 102% | viability, T/C (second compound 0.1 µM, first compound 0.316 µM): 117% | viability, T/C (second compound 0.1 µM, first compound 1 µM): 116% | viability, T/C (second compound 0.1 µM, first compound 3.16 µM): 143% | viability, T/C (second compound 0.1 µM, first compound 10 µM): 133% | viability, T/C [3]: 103% | viability, T/C [4]: 99.3% | viability, T/C (second compound 0.316 µM, first compound 0.316 µM): 96.5% | viability, T/C (second compound 0.316 µM, first compound 1 µM): 109% | viability, T/C (second compound 0.316 µM, first compound 3.16 µM): 138% | viability, T/C (second compound 0.316 µM, first compound 10 µM): 140% | viability, T/C [5]: 81.1% | viability, T/C [6]: 80.8% | viability, T/C (second compound 1 µM, first compound 0.316 µM): 83.3% | viability, T/C (second compound 1 µM, first compound 1 µM): 82.3% | viability, T/C (second compound 1 µM, first compound 3.16 µM): 123% | viability, T/C (second compound 1 µM, first compound 10 µM): 111% | viability, T/C [7]: 43.3% | viability, T/C [8]: 44% | viability, T/C (second compound 3.16 µM, first compound 0.316 µM): 33.7% | viability, T/C (second compound 3.16 µM, first compound 1 µM): 15.4% | viability, T/C (second compound 3.16 µM, first compound 3.16 µM): 1.6% | viability, T/C (second compound 3.16 µM, first compound 10 µM): 17.8%

Cn1ncnc1[C@H]1c2n[nH]c(=O)c3cc(F)cc(c23)N[C@@H]1c1ccc(F)cc1 + C=CC(=O)N1CCN(c2nc(=O)n(-c3c(C)ccnc3C(C)C)c3nc(-c4c(O)cccc4F)c(F)cc23)C(C)C1
IC50 (second compound 0.1 µM): > 100 nM | IC50 (second compound 0.316 µM): > 100 nM | IC50 (second compound 1 µM): > 100 nM | IC50 (second compound 3.16 µM): > 100 nM | IC50 (second compound 10 µM): > 100 nM | viability, T/C (second compound 0.1 µM, first compound 0.000316 µM): 106% | viability, T/C (second compound 0.1 µM, first compound 0.001 µM): 109% | viability, T/C (second compound 0.1 µM, first compound 0.00316 µM): 101% | viability, T/C (second compound 0.1 µM, first compound 0.01 µM): 107% | viability, T/C [1]: 96.5% | viability, T/C [2]: 95% | viability, T/C (second compound 0.316 µM, first compound 0.000316 µM): 110% | viability, T/C (second compound 0.316 µM, first compound 0.001 µM): 102% | viability, T/C (second compound 0.316 µM, first compound 0.00316 µM): 116% | viability, T/C (second compound 0.316 µM, first compound 0.01 µM): 94.9% | viability, T/C [3]: 105% | viability, T/C [4]: 108% | viability, T/C (second compound 1 µM, first compound 0.000316 µM): 114% | viability, T/C (second compound 1 µM, first compound 0.001 µM): 109% | viability, T/C (second compound 1 µM, first compound 0.00316 µM): 118% | viability, T/C (second compound 1 µM, first compound 0.01 µM): 97.5% | viability, T/C [5]: 110% | viability, T/C [6]: 118% | viability, T/C (second compound 3.16 µM, first compound 0.000316 µM): 102% | viability, T/C (second compound 3.16 µM, first compound 0.001 µM): 104% | viability, T/C (second compound 3.16 µM, first compound 0.00316 µM): 101% | viability, T/C (second compound 3.16 µM, first compound 0.01 µM): 100% | viability, T/C [7]: 99.7% | viability, T/C [8]: 96.4% | viability, T/C (second compound 10 µM, first compound 0.000316 µM): 81.8% | viability, T/C (second compound 10 µM, first compound 0.001 µM): 80.2% | viability, T/C (second compound 10 µM, first compound 0.00316 µM): 83.4% | viability, T/C (second compound 10 µM, first compound 0.01 µM): 83.2% | viability, T/C (second compound 10 µM, first compound 0.0316 µM): 82.5% | viability, T/C (second compound 10 µM, first compound 0.1 µM): 78%
